Like-named read-outs stand apart in the source and are kept apart here.
Biological target: T1, cloned human MC4R (Homo sapiens, UniProt P32245)
T1 construct: made in house; host or cells: Hi5 insect cells (baculovirus infection); membrane preparation
Test: Membrane binding assay: competitive inhibition of [125I]NDP-α-MSH binding
Conditions: for inhibition at 10 µM: read-out: Displacement Rate (%) (at 10 μM)
Experimental: Hi5 cells are infected using the following protocol: Cells at a density of 1×10^6 cells/mL are spun down at 1000 rpm (Beckman GS-6KR centrifuge) for 10 minutes. Cells are resuspended in 10% of their original volume in a sterile 50 mL conical centrifuge tube wrapped with aluminum foil. Virus is added at a Multiplicity of Infection (MOI) of 3 and incubated for 1 hour at room temperature with gentle shaking. […] Cells are spun down in 50 mL conical centrifuge tubes at 1000 rpm for 10 minutes. Each of the resulting pellets are resuspended in 10 mL of cold (4° C.) membrane buffer (25 mM HEPES, pH 7.4, 140 mM NaCl, 1.2 mM MgCl2, 2.5 mM CaCl2, 10 μG/mL Aprotinin, 10 μG/mL Leupeptin) and Dounce homogenized using 10-12 strokes. […] The resulting pellet is resuspended in cold membrane buffer in a total of ¼ of the original volume by vortexing and aspiration using a syringe and 27 gauge needle. Protein content is determined (Bradford, Bio-Rad Protein Assay). Membranes are aliquoted in microcentrifuge tubes and quick frozen in liquid nitrogen. Store at −80° C. until use. The membrane binding buffer is composed of 25 mM HEPES, pH 7.4, 140 mM NaCl, 1.2 mM MgCl2, 2.5 mM CaCl2, 0.1% BSA. […] The mixture is filtered with Brandel Microplate 96 filter apparatus using 96-well GF/B filter presoaked in 1-% polyethyleneimine (Sigma). The filter is washed (4 times with a total of 1 mL per well) with cold wash buffer consisting of 20 mM HEPES, pH 7.4, 5 mM MgCl2. […] 100 μl of Wallac Optiphase Supermix scintillation fluid is added to each well. The top is sealed and the plates are shaken to insure that the filters are thoroughly soaked with fluid. […] Dose-response curves are fitted by […] analyses and IC50 values are calculated using ExcelFit.

[1] = at 10 μM, [125I]NDP-α-MSH displacement

T1 sequence (P32245 whole entry): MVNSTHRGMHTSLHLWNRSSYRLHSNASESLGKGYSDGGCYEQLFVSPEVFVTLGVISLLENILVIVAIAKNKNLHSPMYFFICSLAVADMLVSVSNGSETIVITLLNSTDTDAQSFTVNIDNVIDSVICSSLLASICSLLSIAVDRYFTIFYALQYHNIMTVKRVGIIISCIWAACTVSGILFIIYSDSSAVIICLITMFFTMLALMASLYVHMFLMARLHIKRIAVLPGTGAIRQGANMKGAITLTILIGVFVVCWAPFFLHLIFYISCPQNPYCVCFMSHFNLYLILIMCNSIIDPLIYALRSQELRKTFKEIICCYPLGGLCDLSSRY

## CCCCCCCN1CCCN(C(=O)[C@@H](N)Cc2ccc(OCc3ccccc3)cc2)CC1 [Example 46]
[1]
  inhibition at 10 µM: 35 to 70%
read-out: MC4R IC50
  IC50: > 3 µM

## N[C@@H](Cc1ccc(OCc2ccccc2)cc1)C(=O)N1CCCN(Cc2cccc3ccccc23)CC1 [Example 47]
[1]
  inhibition at 10 µM: 35 to 70%
read-out: MC4R IC50
  IC50: > 3 µM

## Cc1ccsc1CN1CCCN(C(=O)[C@@H](N)Cc2ccc(OCc3ccccc3)cc2)CC1 [Example 48]
[1]
  inhibition at 10 µM: 35 to 70%
read-out: MC4R IC50
  IC50: > 3 µM

## CC(COc1ccccc1)N1CCCN(C(=O)[C@@H](N)Cc2ccc(OCc3ccccc3)cc2)CC1 (stereo partly shown) [Example 49]
[1]
  inhibition at 10 µM: 35 to 70%
read-out: MC4R IC50
  IC50: > 3 µM

## CCOc1ccccc1CN1CCCN(C(=O)[C@@H](N)Cc2ccc(OCc3ccccc3)cc2)CC1 [Example 50]
[1]
  inhibition at 10 µM: 35 to 70%
read-out: MC4R IC50
  IC50: > 3 µM

## N[C@@H](Cc1ccc(OCc2ccccc2)cc1)C(=O)N1CCCN(Cc2ccc3ccccc3c2)CC1 [Example 51]
[1]
  inhibition at 10 µM: 35 to 70%
read-out: MC4R IC50
  IC50: > 3 µM

## N[C@@H](Cc1ccc(OCc2ccccc2)cc1)C(=O)N1CCCN(Cc2ccc(Cl)cc2Cl)CC1 [Example 52]
[1]
  inhibition at 10 µM: 35 to 70%
read-out: MC4R IC50
  IC50: > 3 µM

## N[C@@H](Cc1ccc(OCc2ccccc2)cc1)C(=O)N1CCCN(CC2CCCCC2)CC1 [Example 53]
[1]
  inhibition at 10 µM: 35 to 70%
read-out: MC4R IC50
  IC50: > 3 µM

## COc1cccc(CN2CCCN(C(=O)[C@@H](N)Cc3ccc(OCc4ccccc4)cc3)CC2)c1OC [Example 54]
[1]
  inhibition at 10 µM: 35 to 70%
read-out: MC4R IC50
  IC50: > 3 µM

## N[C@@H](Cc1ccc(OCc2ccccc2)cc1)C(=O)N1CCCN(Cc2cccc(C(F)(F)F)c2)CC1 [Example 55]
[1]
  inhibition at 10 µM: 35 to 70%
read-out: MC4R IC50
  IC50: > 3 µM

## N[C@@H](Cc1ccc(OCc2ccccc2)cc1)C(=O)N1CCCN(Cc2ccc(Br)cc2)CC1 [Example 56]
  IC50: > 3 µM
  inhibition at 10 µM: 35 to 70%

## N[C@@H](Cc1ccc(OCc2ccccc2)cc1)C(=O)N1CCCN(Cc2ccccc2Cl)CC1 [Example 57]
[1]
  inhibition at 10 µM: 35 to 70%
read-out: MC4R IC50
  IC50: > 3 µM

## N[C@@H](Cc1ccc(OCc2ccccc2)cc1)C(=O)N1CCCN(Cc2c(F)cccc2Cl)CC1 [Example 58]
[1]
  inhibition at 10 µM: 35 to 70%
read-out: MC4R IC50
  IC50: > 3 µM

## COc1cc(CN2CCCN(C(=O)[C@@H](N)Cc3ccc(OCc4ccccc4)cc3)CC2)cc(Br)c1OC [Example 59]
[1]
  inhibition at 10 µM: 35 to 70%
read-out: MC4R IC50
  IC50: > 3 µM

## N[C@@H](Cc1ccc(OCc2ccccc2)cc1)C(=O)N1CCCN(Cc2ccccc2)CC1 [Example 60]
[1]
  inhibition at 10 µM: 35 to 70%
read-out: MC4R IC50
  IC50: > 3 µM

## N[C@@H](Cc1ccc(OCc2ccccc2)cc1)C(=O)N1CCCN(Cc2ccc([N+](=O)[O-])cc2)CC1 [Example 61]
[1]
  inhibition at 10 µM: 35 to 70%
read-out: MC4R IC50
  IC50: > 3 µM

## N[C@@H](Cc1ccc(OCc2ccccc2)cc1)C(=O)N1CCCN(Cc2cnc3ccccc3c2)CC1 [Example 62]
[1]
  inhibition at 10 µM: 35 to 70%
read-out: MC4R IC50
  IC50: > 3 µM

## COc1cccc(CC(C)N2CCCN(C(=O)[C@@H](N)Cc3ccc(OCc4ccccc4)cc3)CC2)c1 (stereo partly shown) [Example 63]
[1]
  inhibition at 10 µM: 35 to 70%
read-out: MC4R IC50
  IC50: > 3 µM

## N[C@@H](Cc1ccc(OCc2ccccc2)cc1)C(=O)N1CCCN(Cc2ccc(Cl)c([N+](=O)[O-])c2)CC1 [Example 64]
  inhibition at 10 µM: 35 to 70%
read-out: MC4R IC50
  IC50: > 3 µM

## Cc1cccc(CN2CCCN(C(=O)[C@@H](N)Cc3ccc(OCc4ccccc4)cc3)CC2)c1 [Example 65]
[1]
  inhibition at 10 µM: 35 to 70%
read-out: MC4R IC50
  IC50: > 3 µM

## N[C@@H](Cc1ccc(OCc2ccccc2)cc1)C(=O)N1CCCN(Cc2cc(F)ccc2F)CC1 [Example 66]
[1]
  inhibition at 10 µM: 35 to 70%
read-out: MC4R IC50
  IC50: > 3 µM

## COc1ccc(CC(C)N2CCCN(C(=O)[C@@H](N)Cc3ccc(OCc4ccccc4)cc3)CC2)cc1 (stereo partly shown) [Example 67]
[1]
  inhibition at 10 µM: 35 to 70%
read-out: MC4R IC50
  IC50: > 3 µM

## N[C@@H](Cc1ccc(OCc2ccccc2)cc1)C(=O)N1CCCN(C2CCN(CCc3ccccc3)CC2)CC1 [Example 68]
[1]
  inhibition at 10 µM: 35 to 70%
read-out: MC4R IC50
  IC50: > 3 µM

## Cc1cccc(CN2CCCN(C(=O)[C@@H](N)Cc3ccc(OCc4ccccc4)cc3)CC2)n1 [Example 69]
[1]
  inhibition at 10 µM: 35 to 70%
read-out: MC4R IC50
  IC50: > 3 µM

## N[C@@H](Cc1ccc(OCc2ccccc2)cc1)C(=O)N1CCCN(Cc2ccc3c(c2)OCCO3)CC1 [Example 70]
[1]
  inhibition at 10 µM: 35 to 70%
read-out: MC4R IC50
  IC50: > 3 µM

## N[C@@H](Cc1ccc(OCc2ccccc2)cc1)C(=O)N1CCCN(Cc2cc3c(cc2Cl)OCO3)CC1 [Example 71]
  inhibition at 10 µM: 35 to 70%
read-out: MC4R IC50
  IC50: > 3 µM

## N[C@@H](Cc1ccc(OCc2ccccc2)cc1)C(=O)N1CCCN(C2CCN(Cc3ccccc3)CC2)CC1 [Example 73]
[1]
  inhibition at 10 µM: 35 to 70%
read-out: MC4R IC50
  IC50: > 3 µM

## CC1CCC(N2CCCN(C(=O)[C@@H](N)Cc3ccc(OCc4ccccc4)cc3)CC2)CC1 (stereo partly shown) [Example 74]
[1]
  inhibition at 10 µM: 35 to 70%
read-out: MC4R IC50
  IC50: > 3 µM

## N[C@@H](Cc1ccc(OCc2ccccc2)cc1)C(=O)N1CCCN(Cc2ccncc2)CC1 [Example 76]
[1]
  inhibition at 10 µM: 35 to 70%
read-out: MC4R IC50
  IC50: > 3 µM

## N[C@@H](Cc1ccc(OCc2ccccc2)cc1)C(=O)N1CCCN(Cc2cc3c(cc2[N+](=O)[O-])OCO3)CC1 [Example 77]
[1]
  inhibition at 10 µM: 35 to 70%
read-out: MC4R IC50
  IC50: > 3 µM

## N[C@@H](Cc1ccc(OCc2ccccc2)cc1)C(=O)N1CCCN(Cc2ccc(F)cc2)CC1 [Example 78]
[1]
  inhibition at 10 µM: 35 to 70%
read-out: MC4R IC50
  IC50: > 3 µM

## CN(C)c1ccc(CN2CCCN(C(=O)[C@@H](N)Cc3ccc(OCc4ccccc4)cc3)CC2)cc1 [Example 79]
[1]
  inhibition at 10 µM: 35 to 70%
read-out: MC4R IC50
  IC50: > 3 µM

## CC(C)(C)c1ccc(Oc2cccc(CN3CCN(C(=O)[C@@H](N)Cc4ccc(OCc5ccccc5)cc4)CC3)c2)cc1 [Example 80]
[1]
  inhibition at 10 µM: 91 to 100%
read-out: MC4R IC50
  IC50: < 1.5 µM

## N[C@@H](Cc1ccc(OCc2ccccc2)cc1)C(=O)N1CCN(Cc2ccc(-c3ccc(Cl)cc3)o2)CC1 [Example 81]
[1]
  inhibition at 10 µM: 91 to 100%
read-out: MC4R IC50
  IC50: < 1.5 µM

## N[C@@H](Cc1ccc(OCc2ccccc2)cc1)C(=O)N1CCN(Cc2ccccc2Sc2ccc(Cl)cc2)CC1 [Example 82]
[1]
  inhibition at 10 µM: 91 to 100%
read-out: MC4R IC50
  IC50: < 1.5 µM

## N[C@@H](Cc1ccc(OCc2ccccc2)cc1)C(=O)N1CCN(Cc2ccc3c(c2)Cc2ccccc2-3)CC1 [Example 83]
[1]
  inhibition at 10 µM: 91 to 100%
read-out: MC4R IC50
  IC50: < 1.5 µM

## N[C@@H](Cc1ccc(OCc2ccccc2)cc1)C(=O)N1CCN(Cc2ccc(Oc3ccccc3)cc2)CC1 [Example 84]
[1]
  inhibition at 10 µM: 91 to 100%
read-out: MC4R IC50
  IC50: < 1.5 µM

## N[C@@H](Cc1ccc(OCc2ccccc2)cc1)C(=O)N1CCN(Cc2cccc(OCc3ccccc3)c2)CC1 [Example 85]
[1]
  inhibition at 10 µM: 91 to 100%
read-out: MC4R IC50
  IC50: < 1.5 µM

## N[C@@H](Cc1ccc(OCc2ccccc2)cc1)C(=O)N1CCN(Cc2cccc(Oc3cc(Cl)cc(Cl)c3)c2)CC1 [Example 86]
[1]
  inhibition at 10 µM: 91 to 100%
read-out: MC4R IC50
  IC50: < 1.5 µM

## N[C@@H](Cc1ccc(OCc2ccccc2)cc1)C(=O)N1CCN(Cc2cn(Cc3ccccc3)c3ccccc23)CC1 [Example 87]
[1]
  inhibition at 10 µM: 91 to 100%
read-out: MC4R IC50
  IC50: < 1.5 µM

## N[C@@H](Cc1ccc(OCc2ccccc2)cc1)C(=O)N1CCN(Cc2ccc(/C=C/c3ccccc3)cc2)CC1 [Example 88]
[1]
  inhibition at 10 µM: 91 to 100%
read-out: MC4R IC50
  IC50: < 1.5 µM

## CCn1c2ccccc2c2cc(CN3CCN(C(=O)[C@@H](N)Cc4ccc(OCc5ccccc5)cc4)CC3)ccc21 [Example 89]
[1]
  inhibition at 10 µM: 91 to 100%
read-out: MC4R IC50
  IC50: < 1.5 µM

## N[C@@H](Cc1ccc(OCc2ccccc2)cc1)C(=O)N1CCN(Cc2cccc(Oc3cccc(C(F)(F)F)c3)c2)CC1 [Example 90]
[1]
  inhibition at 10 µM: 91 to 100%
read-out: MC4R IC50
  IC50: < 1.5 µM

## N[C@@H](Cc1ccc(OCc2ccccc2)cc1)C(=O)N1CCN(Cc2ccc(N(c3ccccc3)c3ccccc3)cc2)CC1 [Example 91]
[1]
  inhibition at 10 µM: 91 to 100%
read-out: MC4R IC50
  IC50: < 1.5 µM

— US6916812B2, “Alpha-aminoamide derivatives as melanocortin agonists” (Bristol-Myers Squibb Company, priority 2001, dated 2005)
